Measurements: ChEMBL document CHEMBL1141186, “2-(Benzimidazol-2-yl)quinoxalines: a novel class of selective antagonists at human A(1) and A(3) adenosine receptors designed by 3D database searching” (J Med Chem, 2005)

Legend:
Type in all cases: cell-based
Adenosine receptor A3 = target: T1, Adenosine receptor A3 (Homo sapiens, UniProt P0DMS8); assay: Displacement of [125I]AB-MECA from human adenosine A3 receptor expressed in CHO cells
T1 sequence (P0DMS8 whole entry): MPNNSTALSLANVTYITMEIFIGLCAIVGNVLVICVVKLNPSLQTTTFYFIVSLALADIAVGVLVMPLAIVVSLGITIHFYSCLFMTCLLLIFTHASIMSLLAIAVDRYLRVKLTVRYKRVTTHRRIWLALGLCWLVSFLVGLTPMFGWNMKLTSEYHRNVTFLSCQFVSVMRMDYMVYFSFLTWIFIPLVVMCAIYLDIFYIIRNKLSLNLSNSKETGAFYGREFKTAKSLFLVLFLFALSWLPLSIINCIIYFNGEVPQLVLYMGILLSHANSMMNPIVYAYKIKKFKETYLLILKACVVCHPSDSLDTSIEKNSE

Adenosine receptor A2a = Adenosine receptor A2a (Homo sapiens, UniProt P29274); assay: Displacement of [3H]NECA from human adenosine A2A receptor expressed in CHO cells
Adenosine receptor A1 = target: T2, Adenosine receptor A1 (Homo sapiens, UniProt P30542); assay: Displacement of [3H]DPCPX from human adenosine A1 receptor expressed in CHO cells
T2 sequence (P30542 whole entry): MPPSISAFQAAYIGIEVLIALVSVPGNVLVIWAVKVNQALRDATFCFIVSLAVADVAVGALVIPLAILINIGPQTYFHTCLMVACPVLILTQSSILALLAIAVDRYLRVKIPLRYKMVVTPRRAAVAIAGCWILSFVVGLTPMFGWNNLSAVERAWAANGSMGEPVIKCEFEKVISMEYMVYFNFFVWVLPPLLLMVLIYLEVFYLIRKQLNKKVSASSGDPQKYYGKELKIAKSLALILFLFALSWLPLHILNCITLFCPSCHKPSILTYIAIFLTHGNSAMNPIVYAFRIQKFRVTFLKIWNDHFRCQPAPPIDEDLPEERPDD

Chain of Adenosine receptor A2a (P29274 whole entry): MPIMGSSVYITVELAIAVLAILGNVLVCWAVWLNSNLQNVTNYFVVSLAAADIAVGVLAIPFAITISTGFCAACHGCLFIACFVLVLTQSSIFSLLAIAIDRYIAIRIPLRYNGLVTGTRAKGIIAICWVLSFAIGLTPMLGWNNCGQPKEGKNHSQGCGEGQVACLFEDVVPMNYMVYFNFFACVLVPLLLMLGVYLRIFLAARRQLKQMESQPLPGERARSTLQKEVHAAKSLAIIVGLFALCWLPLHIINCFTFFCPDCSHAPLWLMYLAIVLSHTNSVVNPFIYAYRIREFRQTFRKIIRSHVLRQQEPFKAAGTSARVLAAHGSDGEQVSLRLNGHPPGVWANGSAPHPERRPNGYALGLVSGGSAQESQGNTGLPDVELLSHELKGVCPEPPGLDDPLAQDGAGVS

Ki (Adenosine receptor A3) [nM] | Ki (Adenosine receptor A2a) [µM] | Ki (Adenosine receptor A1) [nM] | SMILES
> 1000 | > 10 | > 10000 | COc1ccc2nc(-c3cnc4ccccc4n3)[nH]c2c1
> 1000 | > 10 | > 10000 | c1ccc2nc(-c3nc4ncncc4[nH]3)cnc2c1
 | 0.561 | 50 | c1ccc2nc(-c3nc4ccccc4[nH]3)cnc2c1
140 | > 10 | 350 | Clc1cccc2nc(-c3cnc4ccccc4n3)[nH]c12
370 | > 10 | > 10000 | Cc1cc2nc(-c3cnc4ccccc4n3)[nH]c2cc1C
632 | > 10 | > 10000 | Clc1ccc2[nH]c(-c3cnc4ccccc4n3)nc2c1
> 1000 | > 10 | > 10000 | Cc1ccc2[nH]c(-c3cnc4ccccc4n3)nc2c1
238 | > 10 | 3.6 | Cc1cc(Cl)cc2[nH]c(-c3cnc4ccccc4n3)nc12
879 | > 10 | > 10000 | O=[N+]([O-])c1cccc2[nH]c(-c3cnc4ccccc4n3)nc12
 | 0.833 | 8000 | Cc1cccc2[nH]c(-c3cnc4ccccc4n3)nc12
 | 3.44 | 0.5 | CCSc1cccc2[nH]c(-c3cnc4ccccc4n3)nc12
699 | > 10 | 9.3 | Clc1cc(Cl)c2[nH]c(-c3cnc4ccccc4n3)nc2c1

More lines, now with the values behind:

SMILES | Ki (Adenosine receptor A3) [nM] | Ki (Adenosine receptor A2a) [µM] | Ki (Adenosine receptor A1) [nM]
CC1CSc2nc3nnnc-3c(O)n21 (configuration not stated) |  | > 10 | > 10000
c1ccc(-c2nnc(-c3ccccn3)[nH]2)nc1 |  | > 10 | > 10000
CCc1nc2c3[nH]c(C)nc3c3nc(C)[nH]c3c2[nH]1 | 147 | > 10 | 496
Oc1c2nnnc-2nc2n1CCCS2 | 437 | > 10 | > 10000
CCc1nc2c([nH]1)c1nc(C)[nH]c1c1nc(CC)[nH]c12 | 135 | 0.329 | 966
c1ccc2nc(-c3nc4cc[nH]cc-4n3)cnc2c1 | 168 | > 10 | > 10000
CSc1cccc2nc(-c3cnc4ccccc4n3)[nH]c12 | 278 | 3 | 2.1
Oc1c2nnnc-2nc2sccn12 | > 1000 | > 10 | > 10000
Oc1c2nnnc-2nc2n1CCS2 | > 1000 | > 10 | > 10000
CCc1nc2c([nH]1)c1nc(CC)[nH]c1c1nc(CC)[nH]c21 | 104 | 0.72 | 46
Cc1nc2c([nH]1)c1nc(C)[nH]c1c1nc(C)[nH]c21 |  | > 10 | > 10000
O=c1[nH]c2ccccc2nc1-c1cc(Cl)[nH]n1 |  | > 10 | 
c1c[nH]c2nc(-c3cnc4ccccc4n3)nc-2c1 | > 1000 | > 10 | > 10000
